Experimental data published in PubChem BioAssay (NCI).
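A five-concentration, 48-hour dose response in 96-well plates underlies each endpoint, interpolated linearly between surrounding concentrations. GI50: concentration for 50% inhibition of growth. At the TGI there is no net growth.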

Key:
Assay in all cases: growth of human tumour cells (NCI), 48 h
[1] = test system: NCI-H226 lung
[2] = test system: MOLT-4 leukemia
[3] = test system: NCI-H23 lung
[4] = test system: RPMI-8226 leukemia
[5] = test system: BT-549 breast
[6] = test system: NCI-H460 lung
[7] = test system: SR leukemia
[8] = test system: SW-620 colon
[9] = test system: MDA-MB-435
[10] = test system: OVCAR-8 ovarian

Compound	TGI [1] [µM]	TGI [2] [µM]	TGI [3] [µM]	TGI [4] [µM]	TGI [5] [µM]	TGI [6] [µM]	TGI [7] [µM]	TGI [8] [µM]	TGI [9] [µM]	TGI [10] [µM]	GI50 [1] [µM]	GI50 [2] [µM]	GI50 [3] [µM]	GI50 [4] [µM]	GI50 [5] [µM]	GI50 [6] [µM]	GI50 [7] [µM]	GI50 [8] [µM]	GI50 [9] [µM]	GI50 [10] [µM]
O=C1C2CC(Cl)C(SSC3CC4C(=O)N(SC(Cl)(Cl)C(Cl)Cl)C(=O)C4CC3Cl)CC2C(=O)N1SC(Cl)(Cl)C(Cl)Cl (stereo unspecified)	26.4	1.35	5.65	5.35	3.41	13.4	1.21	5.09	6.23	3.5	–	–	–	–	–	–	–	–	–	–
NC(N)=NC(CC(=O)O)c1ccccc1 (stereo unspecified)	–	–	> 100	> 100	> 100	> 100	> 100	> 100	> 100	> 100	–	–	–	–	–	–	–	–	–	–
CCCCCCCCCCCCc1ccc(C(=O)/C=C/C(=O)O)cc1	3.14	5.11	4.65	6.75	5.33	27.1	3.07	3.67	11.2	12.9	1.59	0.99	1.89	2.11	1.91	10.8	0.423	1.43	3.05	3.44
O=C1CC(=O)N(C2CCCCC2)C(=O)N1c1ccccc1S(=O)(=O)Oc1ccccc1	–	37.8	–	97.1	> 100	> 100	> 100	> 100	> 100	> 100	–	–	–	–	–	–	–	–	–	–
O=[N+]([O-])c1ccc(Sc2ncccn2)c([N+](=O)[O-])c1	18.2	25.4	19.1	5.4	4.19	24.1	17.9	8.05	13.3	14	4.28	2.32	5.28	1.89	1.27	6.78	1.2	2.9	3.16	4.33
ClC(=Nc1cccc2ccccc12)N(c1ccccc1)c1ccccc1	–	–	> 100	89.3	> 100	90.8	> 100	> 100	> 100	–	–	–	–	–	–	–	–	–	–	–
COc1cc[nH]c1/C=C1\C(=O)Nc2ccc(F)c(C#C[C@@H](O)[C@@H](N)[C@@H](C)O)c21	2.54	2.06	3.33	1.83	1.65	2.77	1.95	3.07	2.83	5.15	0.526	0.6	0.649	0.683	0.642	0.515	0.114	0.559	0.561	0.843
COc1cc2c(cc1OC)C(=O)C(Br)CC2 (stereo unspecified)	–	15	10.9	–	5.85	16.9	> 100	6.39	10.4	11.7	–	3.22	2.89	–	2.15	4.27	3.49	2.71	2.87	3.28
O=C1C=C[C@]2(C[C@@H](c3cccc(C(F)(F)F)c3)O[C@@H](c3cccc(C(F)(F)F)c3)O2)O1	10.5	–	18.7	5.97	4.82	2.58	5.4	5.14	3.39	13.4	2.18	–	4.03	1.12	1.92	0.6	0.674	1.76	1.6	3.03
O=S(=O)(c1ccc(NC(=S)N/N=C/c2ccccc2O)cc1)N1CCCCC1	0.803	2.13	6.94	8.17	> 100	–	3.58	21	11.2	14.9	–	–	–	–	–	–	–	–	–	–
O=C(c1cccs1)c1c(C(F)(F)F)n([O-])c2ccc(C(F)(F)F)cc2[n+]1=O	1.42	0.498	1	1.12	0.34	0.407	1.28	0.325	1.19	0.479	0.524	0.174	0.353	0.279	0.178	0.205	0.301	0.162	0.564	0.116
O=c1c(Cl)nnc2sc3ccccc3n12	> 100	> 100	> 100	> 100	> 100	> 100	> 100	> 100	> 100	> 100	43.1	19.6	25.2	27.9	64.9	37.7	13.1	47.7	42	40.8
COc1cc(-c2cc(C(=O)N3CCN(C(=O)c4ccccc4NCc4ccco4)CC3)nc3cc(-c4ccccc4)nn23)cc(OC)c1OC	> 100	> 100	> 100	> 100	> 100	> 100	> 100	> 100	1.61	> 100	5.48	11.2	5.5	3.61	4.27	2.55	0.523	2.62	0.309	4.38
Cn1cc(-c2ccc(=O)n(Cc3cccc(-c4ncc(OCCN5CCOCC5)cn4)c3)n2)cn1	> 100	> 100	> 100	> 100	> 100	> 100	> 100	> 100	> 100	> 100	23.5	36.4	32.9	34	32.1	> 100	76.4	> 100	61.8	36.5
O=C1c2ccccc2-c2c1c1ccccc1c(=O)n2CCO	> 38.1	9.36	> 61.9	> 100	> 100	11.3	22.5	> 100	> 100	> 100	–	–	–	–	–	–	–	–	–	–
